According to patent US10174033B2, “N6-substituted adenosine derivatives and N6-substituted adenine derivatives and uses thereof” (INSTITUTE OF MATERIA MEDICA, CHINESE ACADEMY OF MEDICAL …, priority 2009, dated 2019):

Assays:
male ICR-mice = assay: Potentiation of sodium pentobarbital sleeping time test; assay type: in vivo
[1] = bioassay-guided fractionation, sedative and hypnotic effects; details: compound isolated from Gastrodia elata and Gymnadenia conopsea, result in words
PC12 cell = details: result in words; cited from earlier work
mice = assay: Sub-threshold hypnotic dose sodium pentobarbital induced sleeping test; assay type: in vivo; details: intraperitoneal, 30 min before sub-threshold sodium pentobarbital (22 mg/kg ip)
Protocol: N^6-substituted adenosine derivatives and/or N^6-substituted adenine derivatives potentiated sodium pentobarbital-induced sleep in mice
Name of Experiment: Sub-threshold hypnotic dose sodium pentobarbital induced sleeping test
Method of Experiment: Mice (n=7-10) were pretreated with test compound or vehicle, after 30 min, a maximal sub-threshold hypnotic dose of sodium pentobarbital (22 mg/kg) was given intraperitoneally (ip). (On some condition, the sub-threshold dosage of sodium pentobarbital should be optimized to the maximum dose, at which the rate of sleep onset of vehicle group is less than 10%). […] Following sodium pentobarbital injection, each mouse was observed 15 min for onset of sleep. The percentage of sleep onset was calculated as: (number of animals falling asleep/total number of animals)×100%.

adenosine A2A receptor = adenosine A2A receptor (Homo sapiens, UniProt P29274); details: result in words; cited from earlier work
adenosine A2A receptor, sequence (P29274 whole entry): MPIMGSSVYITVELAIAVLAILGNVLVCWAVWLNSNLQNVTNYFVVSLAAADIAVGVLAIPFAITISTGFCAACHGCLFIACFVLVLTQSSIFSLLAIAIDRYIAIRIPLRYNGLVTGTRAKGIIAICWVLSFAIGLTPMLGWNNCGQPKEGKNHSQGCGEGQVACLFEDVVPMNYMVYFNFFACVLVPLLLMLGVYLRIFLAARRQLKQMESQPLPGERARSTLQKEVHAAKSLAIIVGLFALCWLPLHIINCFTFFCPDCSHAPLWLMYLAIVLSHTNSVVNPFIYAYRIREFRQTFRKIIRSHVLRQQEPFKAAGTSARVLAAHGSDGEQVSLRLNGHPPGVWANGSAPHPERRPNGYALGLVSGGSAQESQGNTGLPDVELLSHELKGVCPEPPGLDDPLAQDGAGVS

Compound | Sleep prolonging rate (%) (male ICR-mice; oral, 1 mg/kg, 38 mg/kg sodium pentobarbital 60 min later) | sedative and hypnotic effects [1] | preventing PC12 cell apoptosis (PC12 cell) | Sleep rate (%) (mice; 1 mg/kg) | binding to adenosine A2A receptor (adenosine A2A receptor) | Sleep prolonging rate (%) (male ICR-mice; intraperitoneal, 5 mg/kg, 38 mg/kg sodium pentobarbital 30 min later) | Sleep rate (%) (mice; 5 mg/kg)
OC[C@H]1O[C@@H](n2cnc3c(NCc4ccc(O)cc4)ncnc32)[C@H](O)[C@@H]1O [Example 2, N^6-(p-hydroxybenzyl)-adenosine] | 90% | significant sedative and hypnotic effects | effective in preventing PC12 cell apoptosis | 63% | binding to adenosine A2A receptor | – | –
OC[C@H]1O[C@@H](n2cnc3c(NCc4ccc(C(F)(F)F)cc4)ncnc32)[C@H](O)[C@@H]1O [Example 13, N^6-(p-trifluoromethylbenzyl)-adenosine] | – | – | – | – | – | 23% | 57%
